Here are results for three molecules from US9409895B2, “Autotaxin inhibitors” (Novartis AG, priority 2012, dated 2016).

This assay concerns the target Recombinant human ATX (Homo sapiens (Human), UniProt Q13822). Briefly: ATX inhibition assay (released choline, choline oxidase/HRP/Amplex Red fluorescence). Type of assay: biochemical. As to the method:
LPC (oleoyl (18:1)) was purchased from Avant: Polar Lipids (Alabaster, Ala.) and solubilized in methanol to 20 mM. Amplex Red was obtained from Invitrogen Life Technologies (Paisley, UK) and dissolved in DMSO to 10 mM. Choline oxidase and horseradish peroxidase (HRP) were obtained from Sigma Aldrich (Dorset, UK) and dissolved in HBSS to 20 U/ml and 200 U/ml respectively. AH reagents were stored at −20° C. in single use aliquots. All experimental measurements were performed in assay buffer made up immediately prior to use (HBSS, 0.01% BSA essentially fatty acid free).
Recombinant human ATX was prepared at Novartis (Basel, CH) in a human embryonic kidney (HEK) cell preparation, and stored in single use aliquots of […] (26 μM) stocks stored at −80° C.
All experimental measurements were performed in black 384 well polystyrene (low volume, round bottom, Corning (3676)) plates. PerkinElmer EnVision (Fluorescence Intensity/Absorbance Monochromator) or Tecan Infinite 200 PRO series plate reader was used to detect change in fluorescent intensity.
ATX activity was determined by measurement of released choline in reactions containing ATX (10 nM), choline oxidase (0.1 U/ml), HRP (100 U/ml), amplex red (50 μM) and LPC 18:1 (10 μM). Compounds of the invention were prepared as 10 point serial dilutions from 1 μM in duplicate and pre-incubated with ATX at 37° C. for 20 minutes prior to the addition of remaining reagents. The liberated choline was measured from changes in fluorescence intensity (λex 530 nm, λem 590 nm) of the product resurofin at 37° C. every 2 minutes over a 40-minute period. ATX activity was measured as a slope of the linear portion of the progress curve, typically between 14 to 24 minutes.
Slope data was exported to Graphpad prism (Graphpad software, San Diego, Calif.) where data was fitted to equation 1. Y=Bottom+(Top−Bottom)/(1+10^((Log IC50−X)*HillSlope)) Equation 1: […]

Read-outs that look alike come from different tables or passages of the source.

By IC50 is commonly meant the midpoint of a concentration-inhibition curve. Turning to “(S)-3,5-Dichlorobenzyl 3-(4-(1H-1,2,3-triazol-4-yl)butanamido)pyrrolidine-1-carboxylate or (R)-3,5-Dichlorobenzyl 3-(4-(1H-1,2,3-triazol-4-yl)butanamido)pyrrolidine-1-carboxylate [Example 49a]”, the IC50 was over 1 µM.

Consider “(S)-3,5-Dichlorobenzyl 3-(4-(1H-1,2,3-triazol-4-yl)butanamido)pyrrolidine-1-carboxylate or (R)-3,5-Dichlorobenzyl 3-(4-(1H-1,2,3-triazol-4-yl)butanamido)pyrrolidine-1-carboxylate [Example 49b]”, for which the IC50 was 0.263 µM.

Regarding `CN(CCC1CCN(C(=O)OCc2cc(Cl)cc(C#N)c2)CC1)C(=O)c1c[nH]nn1` [Example 36, 3-Chloro-5-cyanobenzyl 4-(2-(N-methyl-1H-1,2,3-triazole-4-carboxamido)ethyl)piperidine-1-carboxylate], where the note is “ATX 10 nM, LPC 18:1 10 μM, 37° C., 20 min pre-incubation, mean of n 2”, the IC50 worked out at 1 µM.
